# Measured values: US20050142634A1, “Novel modulator of non-genomic activity of nuclear receptors (mnar) and uses thereof” (Wyeth, priority 2001, published 2005)
# Legend:
# [1] = test system: MNAR; assay: MNAR expression in MCF-7 cells (TaqMan, Western blotting); assay type: cell-based, human
# Method: (§1) A—HepG2 cells were transfected with expression plasmids for ERα, MNAR and/or SRC3. […] B—HepG2 cells were transfected with expression vectors for ERαand MNAR. […] C—MCF-7 cells were transfected with 100 nM antisense (AS) […] (SEQ ID NO: 11) from Sequitur, Inc. (Natick, Mass.) or reverse control (C) oligomers complexed with 1 μg/ml of Lipofectamine 2000 in white media. […] MNAR antiserum was generated against […] peptide encoding amino acids 509-520 ([…]) (SEQ ID NO: 31) of the MNAR.
# (§2) It has been previously reported that activation of Src by estradiol triggers Ras/Erks kinase pathway. We expected that MNAR induced Src activation may lead to activation of Erk kinases 1 and 2. […] MNAR antisense oligonucleotide (SEQ ID NO:11) was developed at Sequitur Inc. (Natick, Mass.).
# (§3) We next used an antisense approach to assess MNAR's role in estrogen regulation of gene transcription. […] MCF-7 cells were transfected with 100 nM antisense or reverse control oligomers. […] TaqMan analysis was performed using a primer/probe set designed to target MNAR, pS2 and Cathepsin D—two genes known to be regulated by estrogens in MCF-7 cells. FIG. 9C presents the levels of MNAR, pS2 and Cathepsin D mRNA expression, normalized to GAPDH mRNA.
# [2] = test system: Cathepsin D; assay: ER-mediated gene expression in MCF-7 cells (TaqMan); assay type: cell-based, human; conditions: 100 nM antisense
# Method: as §1, §3
# [3] = test system: pS2; assay: as above; assay type: cell-based, human; conditions: 100 nM antisense
# Method: as §1, §3
# [4] = test system: Erk 1 and 2; assay: E2 induced Erk kinase 1 and 2 activation in MCF7 cells (Western blotting); assay type: cell-based, human; conditions: for effect on E2 induced Erk 1 and 2 activation: MCF7 cells overexpressing MNAR or treated with 100 nM antisense, 10 nM E2 5 minutes; for level of total Erk 1 and 2: Erk1/2 antibodies
# Excerpt: as §2
# [5] = test system: cSrc; conditions: ERα with MNAR and cSrc, 1 μM E2, compared to unliganded ERα
# Excerpt: ER-MNAR-cSrc Interaction Analysis. […] Formed complexes were isolate by pulled-down with anti-cSrc or anti-Lck antibodies and protein A agarose, boiled in 2×SDS buffer and resolved on an SDS-PAGE gel. Gel was dried and subjected to autoradiography.
# To address this question, we have used in vitro transcribed/translated estrogen receptors ERα, ERβ and MNAR. […] Formed complexes were pulled-down with anti-cSrc or anti-Lck antibodies and protein A sepharose and then resolved on an SDS gel.
# [6] = test system: cSrc; assay: Kinase reaction on immunoprecipitates from MCF-7 cells ([32P]γATP); assay type: cell-based, human; conditions: material coprecipitated with anti-Src and anti-ER antibodies from MCF-7 cells, E2 10 nM 5 minutes
# Method: FLAG-MNAR (panel A), cSrc (panel B), or ERα (panels C, D and E) were immunoprecipitated from the cell extracts using corresponding antibodies. Immunoprecipitates were incubated with [32P]γATP for 30 minutes at 30° C. (panels A-C), or with [32P]-γATP and enolase (panel D). Kinase reaction was stopped by boiling in 2×SDS buffer. Phosphorylated material was loaded on SDS gel, which was then dried and subjected to autoradiography.
# We evaluated whether MNAR and ER interacted and activated Src kinase in MCF-7 cells. […] Flag-MNAR (FIG. 10, panel A), ERα (FIG. 10, panel C and D), and csrc (FIG. 10, panel B) were immunoprecipitated from the cell extracts using their corresponding antibodies. […] Immunoprecipitates were incubated with [32P]γATP at 30° C. for 30 minutes. Reaction was stopped by boiling in 2×SDS buffer and resolved on a SDS PMG.
# [7] = test system: ER; assay: MNAR structural-functional analysis, ER-stimulated transcription in HepG2 cells; assay type: cell-based; conditions: MNAR deletion mutants transfected into HepG2 cells
# Method: To delineate the regions of MNAR that are responsible for interaction with estrogen receptor and c-Src tyrosine kinase, we performed functional evaluation of MNAR deletion mutants (FIG. 12). A series of C-terminal truncations of MNAR was generated using specially designed oligonucleotides, by amplifying appropriate fragments and cloning them into appropriate expression vectors. These mutants were tested for their abilities to enhance ER-stimulated transcription when transfected into HepG2 cells.
# At the C-terminus, MNAR contains a region rich in both proline and glutamic acid. To delineate the regions on MNAR responsible for interaction with estrogen receptors and c-src tyrosine kinase, a functional evaluation of MNAR deletion mutants was performed (FIG. 12). A series of C-terminal truncations of MNAR was generated using specially designed oligonucleotides, by amplifying appropriate fragments and cloning them into appropriate expression vectors. These mutants were tested for their abilities to enhance ER-stimulated transcription when transfected into HepG2 cells.
# [8] = test system: ERα; assay: MNAR effect on ER-mediated transcription, 2xERE-tk-luciferase reporter in HepG2 cells; assay type: cell-based; conditions: for effect of kinase inhibitor on MNAR stimulation of ER activity / MNAR stimulation of ER activity with ligand / effect of Src inhibitor on MNAR stimulation of E2 induced ERα activity: HepG2, ERα and MNAR; for effect of kinase inhibitor on MNAR stimulation of ER activity: 10 nM E2 plus 1 μM inhibitor; for MNAR stimulation of ER activity with ligand: ligand at 10 nM; for effect of Src inhibitor on MNAR stimulation of E2 induced ERα activity: treated for 24 hr with 17β-estradiol and inhibitor
# Method: Transient Transfection Analysis: HepG2 and COS-7 cells were routinely maintained in DMEM supplemented with 10% FBS. Either 50,000 cells per well of HepG2 or 30,000 per well of COS-7 were seeded in 96 well plates in DMEM without phenol red supplemented with 10% charcoal stripped serum. 100 ng of 2×ERE-tk-Luc reporter, 10 ng of pCMV-O-gal internal control, either 1 ng of pcDNA3.1 ERα or 5 ng of pcDNA3.1 ERβ expression vector with or without increasing amount of pcDNA3.1 MNAR or pcDNA3.1 SRC3 expression plasmids were transfected using 0.5 ul of lipofectamine 2000 (Life Technologies, Rockville, Md.) according to protocol. Cells were stimulated either with 10^−8M 17-b-estradiol, tamoxifen, or ICI for 24 hr before being processed for luciferase and β-Galactosidase activity.
# A—HepG2 cells were transfected with expression plasmids for ERα, MNAR and/or SRC3. […] B—HepG2 cells were transfected with expression vectors for ERαand MNAR. […] (SEQ ID NO: 11) from Sequitur, Inc. (Natick, Mass.) or reverse control (C) oligomers complexed with 1 μg/ml of Lipofectamine 2000 in white media.
# To evaluate if MNAR overexpression affects transcriptional activity of ER, HepG2 cells were transiently cotransfected with plasmids for expression of ERα and MNAR.
# [9] = test system: cSrc; assay: Analysis of cSrc enzymatic activity with acidified enolase as substrate; assay type: biochemical; conditions: acid denatured enolase as substrate
# Method: Analysis of cSrc Enzymatic Activity. […] Before reaction proteins were incubated for 1 hr at 4° C. Phosporylation reaction was started by addition of [32P]-γATP and continued at 30° C. for 10 min. Reaction was stopped by addition of 2×SDS buffer. Phosphorylated proteins were separated by SDS-PAGE and the dried gel was subjected to autoradiography.
# [10] = test system: ERα
# Method: MNAR-Nuclear receptors interaction analysis was performed. […] Formed complexes were isolated using anti-FLAG sepharose beads, boiled in 2×SDS buffer and loaded on SDS gel.
# With full-length flag-MNAR, we further evaluated whether MNAR interaction with estrogen receptors is affected by ER ligands. […] Formed complexes were isolated using anti-FLAG sepharose beads.
compound,measurement,setting,value
"MNAR antisense oligonucleotides: antisense (AS) CATGGAGATGTCCCGGAACAGTGCA (SEQ ID NO: 11) from Sequitur, Inc., targets MNAR (listed as DNA, chemistry not given here; listed as Homo sapiens)",MNAR level,"[1]; MCF7 cells, 100 nM antisense, Western blotting with MNAR antibodies",attenuated
same,MNAR expression,"[1]; MCF-7 cells, 100 nM antisense, TaqMan and Western Blotting",significantly inhibited
same,basal level of Cathepsin D expression,[2],did not significantly affect
same,E2-stimulated Cathepsin D expression,[2]; 10 nM E2,dramatic reduction
same,basal level of pS2 expression,[3],did not significantly affect
same,E2-stimulated pS2 expression,[3]; 10 nM E2,dramatic reduction
same,effect on E2 induced Erk 1 and 2 activation,[4],attenuated
same,level of total Erk 1 and 2,[4]; MCF7 cells,Neither treatment with MNAR antisense oligonucleotides nor short treatment with E2 affected
"C[C@]12CC[C@@H]3c4ccc(O)cc4CC[C@H]3[C@@H]1CC[C@@H]2O [E2, 17β-estradiol, reference compound]",Src-ER-MNAR complex formation,[5],significant stimulation
same,MNAR mRNA expression,"[1]; MCF-7 cells, 10 nM E2 24 hours, normalized to GAPDH mRNA",substantially stimulated
same,phosphorylation of endogenous protein of approximately 34 kDa,[6],stimulated
same,Erk 1 and 2 phosphorylation,"[4]; MCF7 cells, 10 nM E2 for 5 minutes",Strong E2 induced stimulation
same,level of total Erk 1 and 2,[4]; MCF7 cells,Neither treatment with MNAR antisense oligonucleotides nor short treatment with E2 affected
mutant 3: MNAR mutant containing aa 1-278,ability to enhance ER-stimulated transcription,[7],still able to augment ER transcriptional activity
COc1cccc(-c2cc(=O)c3ccccc3o2)c1N [PD98059],effect of kinase inhibitor on MNAR stimulation of ER activity,[8],abrogate MNAR stimulation of ER activity
"C[C@]12CC[C@@H]3c4ccc(O)cc4C[C@@H](CCCCCCCCC[S+]([O-])CCCC(F)(F)C(F)(F)F)[C@H]3[C@@H]1CC[C@@H]2O (stereo partly drawn) [ICI 182,780]",MNAR stimulation of ER activity with ligand,[8],do not support MNAR stimulation of ER activity
mutant 2: MNAR mutant containing aa 1-469,ability to enhance ER-stimulated transcription,[7],still able to augment ER transcriptional activity
mutant 4: MNAR mutant containing aa 1-189,ability to enhance ER-stimulated transcription,[7],still able to augment ER transcriptional activity
"O=c1c(-c2ccc(O)cc2)coc2cc(O)cc(O)c12 [genesteine, genistein]",effect of Src inhibitor on MNAR stimulation of E2 induced ERα activity,[8],inhibited MNAR stimulation
CC(C)(C)n1nc(-c2ccc(Cl)cc2)c2c(N)ncnc21 [PP2],effect of kinase inhibitor on MNAR stimulation of ER activity,[8],abrogate MNAR stimulation of ER activity
same,effect of Src inhibitor on MNAR stimulation of E2 induced ERα activity,[8],inhibited MNAR stimulation
"MNAR: novel ER interacting protein, 1130 amino acids, cloned from MCF-7 cells",cSrc enzymatic activity,[9],strongly stimulates
same,ERα transcriptional activity on overexpression,"[8]; HepG2 cells transfected with expression plasmid, 2xERE-tk-reporter",stimulation of ERα transcriptional activity
same,phosphorylation of endogenous protein of approximately 34 kDa,[6],dramatically augmented
same,effect on E2 induced Erk 1 and 2 activation,[4],significantly enhanced
CC/C(=C(\c1ccc(O)cc1)c1ccc(OCCN(C)C)cc1)c1ccccc1 [4(OH) tamoxifen],MNAR stimulation of ER activity with ligand,[8],do not support MNAR stimulation of ER activity
same,ERα interaction with MNAR,[10],inhibited
